The target in test [1] is T1, CDK9 (Homo sapiens, UniProt P50750).
T1 construct: endogenous in cells; host or cells: MDA-MB-231
Kind of test: CDK protein degradation activity (Western blotting), CDK9. The settings on record: MDA-MB-231 cells, 16 hours, Western blot. Type of test: cell-based. In a few lines:
(§1)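 MDA-MB-231; cmpd 100 nM / 1 μM / 10 μM final vs DMSO, 16 h. Triton X-100 lysates (pH 7.5, phosphatase/protease inhibitors) → SDS-PAGE → Western blot, anti-CDK2, anti-CDK9, tubulin loading control; densitometry.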
For orientation: A western blot detects proteins with antibodies after separation by electrophoresis.

Test [2] has as its target T2, CDK2 (Homo sapiens, UniProt P24941).
T2 construct: endogenous in cells; host or cells: MDA-MB-231
Kind of test: CDK protein degradation activity (Western blotting), CDK2. Type of test: cell-based. The note with it: MDA-MB-231 cells, 16 hours, Western blot. The method in brief: as §1

The record followed here is patent publication US20260125382A1, “COMPOUNDS FOR INHIBITING OR DEGRADING CDK2 AND/OR CDK9 AND MEDICINAL USE THEREOF” (KOREA RESEARCH INSTITUTE OF CHEMICAL TECHNOLOGY, priority 2022, published 2026).

T1 sequence (P50750 whole entry): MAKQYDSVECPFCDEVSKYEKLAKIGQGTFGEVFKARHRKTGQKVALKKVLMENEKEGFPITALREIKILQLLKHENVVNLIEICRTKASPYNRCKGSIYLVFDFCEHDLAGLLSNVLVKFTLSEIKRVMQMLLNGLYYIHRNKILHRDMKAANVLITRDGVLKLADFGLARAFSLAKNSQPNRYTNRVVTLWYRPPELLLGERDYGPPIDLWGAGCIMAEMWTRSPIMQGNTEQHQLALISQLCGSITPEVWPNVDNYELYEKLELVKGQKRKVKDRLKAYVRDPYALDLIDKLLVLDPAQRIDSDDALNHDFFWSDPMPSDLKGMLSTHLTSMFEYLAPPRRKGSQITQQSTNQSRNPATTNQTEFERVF

Regarding `O=C1CC[C@H](N2C(=O)c3ccc(NCC(=O)N4CCN(CCCN5CCN(c6ccc(Nc7ncnc8c7ncn8C7CC(NC(=O)Cc8ccccc8)C7)cc6)CC5)CC4)cc3C2=O)C(=O)N1` (stereo partly drawn) [Compound 233, N-((1s,3s)-3-(6-((4-(4-(3-(4-((2-(2,6-dioxopiperidin-3-yl)-1,3-dioxoisoindolin-5-yl)glycyl)piperazin-1-yl)propyl)piperazin-1-yl)phenyl)amino)-9H-purin-9-yl)cyclobutyl)-2-phenylacetamide], in test [1], the “Enzyme degradation CDK9 (% remaining) @ 0.1 μM” value came to 40%, the “Enzyme degradation CDK9 (% remaining) @ 1 μM” value worked out at 0% and the “Enzyme degradation CDK9 (% remaining) @ 10 μM” value came to 0%. In test [2], the “Enzyme degradation CDK2 (% remaining) @ 0.1 μM” value is reported as 80%, the “Enzyme degradation CDK2 (% remaining) @ 1 μM” value stood at 80% and the “Enzyme degradation CDK2 (% remaining) @ 10 μM” value is given as 70%.
Take `Cc1cccc(C(=O)NC2CC(n3cnc4c(NCC5CCN(CC6CCN(c7ccc8c(c7)C(=O)N([C@@H]7CCC(=O)NC7=O)C8=O)CC6)CC5)ncnc43)C2)n1` (stereo partly drawn) [Compound 76, N-((1r,3r)-3-(6-(((1-((1-(2-(2,6-dioxopiperidin-3-yl)-1,3-dioxoisoindolin-5-yl)piperidin-4-yl)methyl)piperidin-4-yl)methyl)amino)-9H-purin-9-yl)cyclobutyl)-6-methylpicolinamide]: in test [1], the “Enzyme degradation CDK9 (% remaining) @ 0.1 μM” value is 30%, the “Enzyme degradation CDK9 (% remaining) @ 1 μM” value is listed as 20% and the “Enzyme degradation CDK9 (% remaining) @ 10 μM” value stood at 10%. Moreover, in test [2], the “Enzyme degradation CDK2 (% remaining) @ 0.1 μM” value is reported as 100/100/100%, the “Enzyme degradation CDK2 (% remaining) @ 1 μM” value is on record as 100/100/100% and the “Enzyme degradation CDK2 (% remaining) @ 10 μM” value was 100/100/100%.
In the case of `O=C1CC[C@H](N2C(=O)c3cccc(NCC(=O)N4CCC(CC(=O)N5CCN(c6ccc(Nc7ncnc8c7ncn8C7CC(NC(=O)Cc8ccccc8)C7)cc6)CC5)CC4)c3C2=O)C(=O)N1` (stereo partly drawn) [Compound 211, N-((1s,3s)-3-(6-((4-(4-(2-(1-((2-(2,6-dioxopiperidin-3-yl)-1,3-dioxoisoindolin-4-yl)glycyl)piperidin-4-yl)acetyl)piperazin-1-yl)phenyl)amino)-9H-purin-9-yl)cyclobutyl)-2-phenylacetamide], in test [1], the “Enzyme degradation CDK9 (% remaining) @ 0.1 μM” value is on record as 30/30/30%, the “Enzyme degradation CDK9 (% remaining) @ 1 μM” value is recorded as 30/30/30% and the “Enzyme degradation CDK9 (% remaining) @ 10 μM” value is 30/30/30%. Also, in test [2], the “Enzyme degradation CDK2 (% remaining) @ 0.1 μM” value turned out to be 50%, the “Enzyme degradation CDK2 (% remaining) @ 1 μM” value turned out to be 50% and the “Enzyme degradation CDK2 (% remaining) @ 10 μM” value was 40%.
`Cc1cccc(C(=O)NC2CC(n3cnc4c(NCCC5CCN(CC6CCN(c7ccc8nnn([C@H]9CCC(=O)NC9=O)c(=O)c8c7)CC6)CC5)ncnc43)C2)n1` (stereo partly drawn) [Compound 304, N-((1s,3s)-3-(6-((2-(1-((1-(3-(2,6-dioxopiperidin-3-yl)-4-oxo-3,4-dihydrobenzo[d][1,2,3]triazin-6-yl)piperidin-4-yl)methyl)piperidin-4-yl)ethyl)amino)-9H-purin-9-yl)cyclobutyl)-6-methylpicolinamide]: in test [1], the “Enzyme degradation CDK9 (% remaining) @ 0.1 μM” value is 20%, the “Enzyme degradation CDK9 (% remaining) @ 1 μM” value is given as 0% and the “Enzyme degradation CDK9 (% remaining) @ 10 μM” value was found to be 0%. Further, in test [2], the “Enzyme degradation CDK2 (% remaining) @ 0.1 μM” value is listed as 20%, the “Enzyme degradation CDK2 (% remaining) @ 1 μM” value was 30% and the “Enzyme degradation CDK2 (% remaining) @ 10 μM” value was 50%.
